Experimental data from PMC8602566 (Frontiers in Oncology, 2021).
Where two headings read alike, the source gives them in different places.

Experiments:
HDAC10 = HDAC10 (Homo sapiens, UniProt Q969S8); experiment: HDACs inhibition assay, HDAC10
Description: (§1) The inhibition assays for HDACs were carried out according to standard protocols. […] The reaction was stopped by the addition of 45 μl of 100 mM HEPES (pH 7.5) and 0.08% sodium dodecyl sulfate (SDS). The substrate and the product were then separated electrophoretically using a LabChip 3000 system (Caliper Life Sciences, Hopkinton, MA) with blue laser excitation and green fluorescence detection.

[1] = Pharmacokinetic study in mice; type: in vivo, SD mice; conditions: plasma; for Tmax: 10 mg/kg
Description: The animal studies were approved by the Institutional Animal Care and Used Committee. The pharmacokinetic study of DMC-HA was carried out with female SD mice. The compound (2.0 mM) was suspended in DMSO (10%) and Tween 80 (10%) in PBS (80%). A single dose of 1 mg/kg was administrated by intravenous injection (n = 3 mice), followed by blood collection via retro-orbital bleeding at 0.25, 0.5, 2.0, 4.0, 8.0, 12.0, and 24 h. Whole blood samples were added to a tube containing ethylenediaminetetraacetic acid (EDTA) and centrifuged. Plasma was collected and stored at −20°C. Compound standards were prepared with pooled plasma samples. Fifty microliters of thawed plasma and standards were added into wells of Ostro Pass-Through Sample Preparation Plate (Waters) for solid phase extraction. Acetonitrile (150 μl) containing internal standard was added and mixed by pipette. Next, clear sample solution was eluted by positive pressure processor under 60 psi for 5 min. The sample solution can be used directly for LC-MS/MS analysis.
The preliminary in vivo pharmacokinetic study for DMC-HA was performed in mice. SD mice were intravenously injected with 1 mg/kg DMC-HA or orally administrated with 10 mg/kg DMC-HA. Plasma samples were collected and analyzed with LC-MS/MS.

U87 cells [2] = experiment: LDH release; type: cell-based, Human; conditions: increasing concentrations, 48 h
all eight cell lines = experiment: Antiproliferative activity, panel of eight cancer cell lines (summary); type: cell-based; conditions: Homo sapiens; summary over the eight cancer cell lines of Table 2; read-out: IC50 values against all eight cell lines
Description: Cells (5 × 10^4) were seeded into 96-well plates and exposed to vehicle (PBS) or different concentrations of compounds for 72 h. Cell viability was measured using the 3-(4,5-dimethylthiazol-2-yl)-2,5-diphenyltetrazolium bromide (MTT) assay and was expressed as a ratio to the absorbance value at 570 nm of the control cells.
As DMC-HA was identified as a potent novel inhibitor for HDACs, its antiproliferative activities on a panel of cancer cell lines and normal cells were evaluated, including four glioma cell lines, and the results are shown in Table 2. Vorinostat and curcumin were also tested as positive controls. […].

HDAC6 = HDAC6 (Homo sapiens, UniProt Q9UBN7); experiment: HDACs inhibition assay, HDAC6
HDAC6, sequence (Q9UBN7 whole entry): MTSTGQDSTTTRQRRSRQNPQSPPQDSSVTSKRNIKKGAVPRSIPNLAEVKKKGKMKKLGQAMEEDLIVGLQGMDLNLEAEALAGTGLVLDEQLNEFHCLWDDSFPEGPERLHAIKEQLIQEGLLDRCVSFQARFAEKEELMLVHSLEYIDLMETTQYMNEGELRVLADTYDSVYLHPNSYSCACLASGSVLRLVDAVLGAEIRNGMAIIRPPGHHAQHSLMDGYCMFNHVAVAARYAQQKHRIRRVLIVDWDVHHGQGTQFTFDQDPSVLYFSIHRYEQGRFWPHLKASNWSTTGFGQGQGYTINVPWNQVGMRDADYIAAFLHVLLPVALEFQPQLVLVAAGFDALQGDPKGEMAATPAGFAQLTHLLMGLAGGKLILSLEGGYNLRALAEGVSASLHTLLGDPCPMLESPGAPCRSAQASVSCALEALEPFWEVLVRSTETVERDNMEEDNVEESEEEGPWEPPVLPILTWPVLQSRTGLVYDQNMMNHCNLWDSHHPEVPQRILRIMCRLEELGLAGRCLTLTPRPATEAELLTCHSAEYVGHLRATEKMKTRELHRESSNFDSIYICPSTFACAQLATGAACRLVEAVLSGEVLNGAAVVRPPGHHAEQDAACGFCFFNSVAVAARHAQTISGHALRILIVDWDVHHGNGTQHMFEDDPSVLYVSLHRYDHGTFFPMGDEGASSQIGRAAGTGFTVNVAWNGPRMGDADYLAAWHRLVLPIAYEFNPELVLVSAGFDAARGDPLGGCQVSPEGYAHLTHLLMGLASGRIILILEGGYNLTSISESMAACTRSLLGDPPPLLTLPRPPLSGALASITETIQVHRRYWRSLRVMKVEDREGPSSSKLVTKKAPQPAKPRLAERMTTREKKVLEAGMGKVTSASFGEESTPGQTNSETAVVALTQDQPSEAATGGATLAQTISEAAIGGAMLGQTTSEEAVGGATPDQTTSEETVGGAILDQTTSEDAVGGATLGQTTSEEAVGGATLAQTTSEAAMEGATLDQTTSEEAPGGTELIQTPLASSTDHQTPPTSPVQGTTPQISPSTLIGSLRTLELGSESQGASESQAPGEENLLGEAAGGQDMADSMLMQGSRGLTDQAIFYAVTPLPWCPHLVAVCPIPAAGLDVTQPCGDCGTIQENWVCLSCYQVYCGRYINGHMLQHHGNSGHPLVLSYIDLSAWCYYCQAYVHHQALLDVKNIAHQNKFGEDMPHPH
Description: as §1

[3] = tested on: Human glioma cell line SHG44; experiment: MTT cell viability assay, SHG44; type: cell-based; conditions: SHG-44, MTT, 72 h, read-out: IC50 antiproliferative activity SHG44
Description: Cell viability was measured using the 3-(4,5-dimethylthiazol-2-yl)-2,5-diphenyltetrazolium bromide (MTT) assay and was expressed as a ratio to the absorbance value at 570 nm of the control cells.

[4] = Hepatic microsome stability assay, mice; type: in vitro ADME; conditions: mouse liver microsomes, NADPH, 37°C, pH 7.4
Description: Metabolic stability was assessed in the presence of human, mouse, and rat liver microsomes (XenoTech, Lenexa, KS, USA). All liquid dispenses and transfer steps were performed with the Freedom Evo automated liquid handler (Tecan US). Compound stock solutions were initially prepared in 100% DMSO and subsequently diluted in acetonitrile for the assay. The pH of the reactions was kept at 7.4 with potassium phosphate buffer. The reaction wells were prepared by adding microsomes to a well and allowed to warm to 37°C. Then, compound was added to each well. The reactions were […] by adding cofactor reduced nicotinamide adenine dinucleotide phosphate (NADPH) to the reaction well containing microsomes and compounds. Negative controls received buffer only. Immediately after reactions started, 0-min aliquots were promptly collected and mixed in a separate well with ice cold acetonitrile to quench the reactions. The remainder of the reaction volume was incubated at 37°C with shaking. An additional aliquot was collected at 60 min after the start of the reaction and promptly quenched with ice cold acetonitrile. Samples were vortexed and centrifuged at 3,500 rpm for 10 min. The amount of compound in the supernatant was determined by liquid chromatography–tandem mass spectrometry (LC/MS/MS) (Thermo Fischer Scientific, San Jose, CA, USA), and the percent of parent compound remaining after 60 min was calculated. Results are the mean of each reaction triplicate, normalized to the internal standard, and expressed as the percent of compound remaining after the incubation time.
Structures that are active in vitro may not be potent in vivo due to their susceptibility to metabolism in the body. We then thoroughly examined the liver microsomal metabolic stability of DMC-HA across three different species (Table 3). […] In addition, the half-life of DMC-HA in human microsome is generally two to three times longer than those in mice and rats. Collectively, the in vitro liver microsomal stability of DMC-HA is favorable, guaranteeing its further in vivo studies.

HDAC1 = HDAC1 (Homo sapiens, UniProt Q13547); experiment: HDACs inhibition assay, HDAC1
HDAC1, sequence (Q13547 whole entry): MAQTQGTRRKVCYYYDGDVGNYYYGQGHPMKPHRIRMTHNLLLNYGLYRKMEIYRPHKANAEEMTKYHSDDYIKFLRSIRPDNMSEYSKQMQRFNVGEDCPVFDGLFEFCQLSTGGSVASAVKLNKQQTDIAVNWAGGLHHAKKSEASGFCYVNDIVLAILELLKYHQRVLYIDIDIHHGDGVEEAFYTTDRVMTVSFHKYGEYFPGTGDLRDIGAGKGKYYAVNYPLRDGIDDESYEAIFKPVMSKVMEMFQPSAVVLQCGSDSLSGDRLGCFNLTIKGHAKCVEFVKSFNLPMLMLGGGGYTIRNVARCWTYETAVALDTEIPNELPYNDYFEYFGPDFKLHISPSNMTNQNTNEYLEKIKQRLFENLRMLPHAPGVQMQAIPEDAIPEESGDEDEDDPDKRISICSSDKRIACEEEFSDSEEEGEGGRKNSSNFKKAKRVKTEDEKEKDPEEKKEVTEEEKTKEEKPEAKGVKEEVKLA
Description: as §1

SIRT1 = SIRT1 (Homo sapiens, UniProt Q96EB6); experiment: HDACs inhibition assay, SIRT1
SIRT1, sequence (Q96EB6 whole entry): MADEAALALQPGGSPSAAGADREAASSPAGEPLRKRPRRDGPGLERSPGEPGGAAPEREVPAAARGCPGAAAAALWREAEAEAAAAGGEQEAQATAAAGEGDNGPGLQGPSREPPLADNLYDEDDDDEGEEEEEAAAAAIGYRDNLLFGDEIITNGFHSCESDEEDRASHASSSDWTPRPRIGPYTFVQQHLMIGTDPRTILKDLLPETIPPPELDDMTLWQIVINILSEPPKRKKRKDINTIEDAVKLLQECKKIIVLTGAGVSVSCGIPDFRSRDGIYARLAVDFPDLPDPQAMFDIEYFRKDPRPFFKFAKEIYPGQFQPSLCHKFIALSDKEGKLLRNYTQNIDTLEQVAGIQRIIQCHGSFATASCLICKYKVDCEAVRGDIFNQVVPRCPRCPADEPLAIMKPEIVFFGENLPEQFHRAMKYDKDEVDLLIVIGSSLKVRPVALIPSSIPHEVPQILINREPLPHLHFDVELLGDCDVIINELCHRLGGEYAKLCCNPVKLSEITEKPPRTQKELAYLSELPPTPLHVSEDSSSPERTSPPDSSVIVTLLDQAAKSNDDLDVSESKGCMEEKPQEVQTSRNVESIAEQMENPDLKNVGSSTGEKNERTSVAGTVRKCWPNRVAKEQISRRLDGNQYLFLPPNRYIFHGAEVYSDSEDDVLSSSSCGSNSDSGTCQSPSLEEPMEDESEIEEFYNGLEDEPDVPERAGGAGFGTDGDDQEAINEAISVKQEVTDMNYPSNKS
Description: as §1

U87 cells [5] = experiment: Cell cycle analysis by flow cytometry; type: cell-based, Human; conditions: 2.5 μM, 36 h (control 4.6%)
Description: […] Cells were detached, fixed in 70% ethanol in PBS (−20°C) overnight and resuspended in PBS supplemented with 100 µg/ml RNase and 50 µg/ml PI for 30 min. Cell cycle analysis was performed on a flow cytometry (FACSCalibur BD, BD Biosciences, San Jose, CA, USA).
Inhibition of HDACs results in anticancer effect through various mechanisms, like cell cycle arrest, reduced proliferation, and induction of apoptosis ([30]). Thus, the cell cycle profile of the human GBM cell line U87 treated with DMC-HA was analyzed by using flow cytometry. […] Although in control cells, only 4.6% of cells were in G2/M phase, 14.5% of cells in G2/M phase were found after treatment with 2.5 μM DMC-HA.

[6] = female, SD, mouse, iv, i.v. 1 mg/kg
[7] = female, SD, mouse, po, p.o. 10 mg/kg

HDAC10, sequence (Q969S8 whole entry): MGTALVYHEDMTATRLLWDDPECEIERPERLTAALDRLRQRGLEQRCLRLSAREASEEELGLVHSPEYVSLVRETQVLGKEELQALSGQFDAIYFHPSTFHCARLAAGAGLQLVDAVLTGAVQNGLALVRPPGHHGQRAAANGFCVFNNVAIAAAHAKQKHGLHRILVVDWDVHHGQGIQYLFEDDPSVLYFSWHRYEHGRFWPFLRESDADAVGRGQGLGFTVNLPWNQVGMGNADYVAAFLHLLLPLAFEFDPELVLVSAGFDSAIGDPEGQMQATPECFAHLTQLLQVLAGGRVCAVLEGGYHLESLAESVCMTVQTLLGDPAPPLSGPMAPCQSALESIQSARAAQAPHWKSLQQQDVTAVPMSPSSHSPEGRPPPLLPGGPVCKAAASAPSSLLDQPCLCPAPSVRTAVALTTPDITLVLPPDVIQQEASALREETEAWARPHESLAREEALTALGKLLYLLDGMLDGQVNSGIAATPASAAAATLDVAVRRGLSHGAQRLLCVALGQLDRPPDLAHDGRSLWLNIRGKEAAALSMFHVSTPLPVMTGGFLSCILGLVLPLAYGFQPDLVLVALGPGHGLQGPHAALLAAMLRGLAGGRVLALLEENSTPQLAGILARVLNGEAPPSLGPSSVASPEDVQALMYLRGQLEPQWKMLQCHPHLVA

Which results are given for `COc1cc(/C=C/C(=O)CC(=O)/C=C/c2ccc(/C=C/C(=O)NO)cc2)ccc1O` [DMC-HA]?
IC50 (HDAC10): 8.39 µM; AUC(0-inf) [1, 6]: 502 ng·h/mL; AUC(0-t) [1, 6]: 493 ng·h/mL; clearance [1, 6]: 30 mL/min/kg; half-life [1, 6]: 192 min; bioavailability ([1]; female, SD, mouse, oral, p.o. 10 mg/kg vs i.v. 1 mg/kg, read-out: F (oral bioavailability)): 40.2%; Tmax ([1]; female, SD, mouse, po, p.o. 10 mg/kg, read-out: Tmax): 40.2 min; Tmax ([1]; female, SD, mouse, po, p.o. 10 mg/kg, read-out: time of peak concentration (converted)): ~40 min; AUC(0-inf) [1, 7]: 2010 ng·h/mL; AUC(0-t) [1, 7]: 1980 ng·h/mL; Cmax [1, 7]: 1070 ng/mL; half-life [1, 7]: 246 min; Cl ([1]; p.o. 10 mg/kg): 145 mL/min/kg; peak concentration ([1]; p.o. 10 mg/kg): about 1.0 μg/ml; LDH release / cell death (U87 cells [2]): induces cell death in a dose-dependent manner; IC50 (all eight cell lines): < 5.3 µM; IC50 (HDAC6): 0.38 µM; IC50 [3]: 4.62 ± 0.72 µM; Mice Liver Microsomal Stability T1/2 [4]: 32.7 min; microsomal CLint [4]: 43.2 µL/min/mg; IC50 (HDAC1): 0.51 µM; IC50 (SIRT1): > 10 µM; cells in G2/M phase (U87 cells [5]): 14.5%
